Converted amounts (≈) assume the structure as drawn.

This data set is described as follows: physchem. The conditions noted are these: water.

Consider `COc1ccc(C(=O)N2CCCc3cc(C4=NNC(=O)SC4C)ccc32)cc1OC` (stereo not shown) [thiadiazinone, 5-[1-(3,4-dimethoxybenzoyl)-1,2,3,4-tetrahydroquinolin-6-yl]-6-methyl-3,6-dihydro-1,3,4-thiadiazin-2-one], for which the solubility (in general, how much of the substance goes into solution per volume) is 2 µg/mL (≈ 4.7 µM).

These data come from patent US20030153585A1, “Pharmaceutical preparations containing 2-pyrrolidone as the dissolving intermediary” (priority 2000, published 2003).
